From article PMC2669657 (Journal of the American Chemical Society, 2009) come the findings set out here.

Data set [1] has as its target Plasmodium falciparum orotate phosphoribosyltransferase (PfOPRT) (Plasmodium falciparum, UniProt Q8N0R1). The format is biochemical.
Data set [2] deals with T1, human orotate phosphoribosyltransferase (HsOPRT), OPRT domain of UMP synthase (Homo sapiens, UniProt P11172).
T1 sequence (P11172 2-245): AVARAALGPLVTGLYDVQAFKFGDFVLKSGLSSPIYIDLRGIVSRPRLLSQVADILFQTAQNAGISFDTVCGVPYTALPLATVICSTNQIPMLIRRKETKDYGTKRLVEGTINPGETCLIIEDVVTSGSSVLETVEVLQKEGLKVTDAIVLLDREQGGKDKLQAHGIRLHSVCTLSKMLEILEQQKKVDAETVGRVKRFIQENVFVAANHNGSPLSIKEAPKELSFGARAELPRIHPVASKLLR
In kind it is biochemical.

The target of data set [3] is T1, human orotate phosphoribosyltransferase (HsOPRT), OPRT domain of UMP synthase. Description: steady-state kinetics. The following applies: read-out: OMP / Km. In kind it is biochemical.
Substrate in data set [4]: O=C(O)c1cc(=O)[nH]c(=O)n1[C@@H]1O[C@H](COP(=O)(O)O)[C@@H](O)[C@H]1O
Description: purified protein. The following applies: Mg2+ ([…] MgCl2 in assay); pH 8.0; 25.0 °C. The format is biochemical, Plasmodium falciparum.

Substrate in data set [5]: O=C(O)CP(=O)(O)O
Description: steady-state kinetics. The following applies: Mg2+ ([…] MgCl2 in assay). The format is biochemical, Plasmodium falciparum.

Take `O=[N+]([O-])c1ccc(O[C@@H]2O[C@H](COP(=O)(O)O)[C@@H](O)[C@H]2O)cc1` [p-nitrophenyl β-D-ribose 5′-phosphate]: the Ki in data set [1] worked out at 40 ± 21 nM.

In the case of `O=[N+]([O-])c1ccc(O[C@@H]2O[C@H](CO)[C@@H](O)[C@H]2O)cc1` [p-nitrophenyl β-D-ribose], the Ki in data set [2] was determined as 121 ± 30 nM; in data set [1] it was 188 ± 40 nM.

Regarding `O=C(O)c1cc(=O)[nH]c(=O)n1[C@@H]1O[C@H](COP(=O)(O)O)[C@@H](O)[C@H]1O` [orotidine 5′-monophosphate], the Km in data set [3] was 1.55 ± 0.61 µM.

B1: Plasmodium falciparum orotate phosphoribosyltransferase (PfOPRT) (Plasmodium falciparum) (protein)
chain: MTTIKENEFLCDEEIYKSFVHLKDKICEERKKKELVNNNIDNVNFNDDDDNNYDDDGNSYSSYIKEMKKLLKVVLLKYKALKFGEFILKSKRKSNYFFSSGVLNNIVSSNIICFLLSELILKNKLSFDYLLGASYKGIPMVSLTSHFLFESKKYSNIFYLYDRKEKKEYGDKNVIVGNLDDDDKDILNLKKKTKNNQDEEKKNIIIIDDVFTCGTALTEILAKLKTYEHLKVVAFIVLLNRNEYEINENNQKIYFKDIFEKRVGIPLYSILSYKDDIQSMI
With B1, in data set [4], the Km came to 3.73 ± 1.36 µM, the kcat was 1.96 ± 0.29 s⁻¹ and the kcat/Km was found to be 530000 M⁻¹ s⁻¹. The Km in data set [5] came out at 1590 µM.
